System: 282377-053-R-J1-PDC complex spheroids, viability
Test: Anticancer human tumor 282377-053-R-J1-PDC patient-derived colon adenocarcinoma cell line growth inhibition [GQUAD]
Settings: for IC50: curve of first compound; for viability, T/C: stronger effect = lower value
From the text: DNA G-quadruplex Stabilizer Agents in Combinations in Complex Spheroids
A high-throughput screen of multi-cell type tumor spheroids was designed to identify active combinations of DNA G-quadruplex stabilizer agents and targeted small molecules. Complex spheroids include a stromal component modeled by human endothelial cells (HUVEC) and fibroblasts modeled by human mesenchymal stem cells (MSCs). The concentration ranges selected for each drug and investigational agent were based upon clinically achievable concentrations if the clinical Cmax of the agent was known.
Compounds. The drugs and investigational agents: pidnarulex (CX-5461; NSC782164), APTO-253 (NSC789042), BRACO-19 (NSC847499), peposertib (NSC802822), ceralasertib (NSC780249), elimusertib (NSC800525), camonsertib (NSC841442), AZD-1390 (NSC803789), olaparib (NSC753686), talazoparib (NSC767125), ART-558 (NSC835418), sotorasib (NSC818433), MRTX-1133 (NSC836407), SN-38 (NSC673596), topotecan (NSC609699), etoposide (NSC141540), doxorubicin (NSC123127), gemcitabine (NSC613327), 5-fluorouracil (NSC19893), paclitaxel (NSC125973), vemurafenib (NSC761431), panobinostat (NSC761190), R-306465 (JNJ-16241199; NSC773264), adavosertib (NSC754352), TP-3654 (NSC805149), carboplatin (NSC241240), KSQ-4279 (NSC840948), and staurosporine (NSC755774) were obtained from the National Cancer Institute (NCI) Developmental Therapeutics Program Chemical Repository (34). The FDA-approved anticancer drug set is available from the NCI Developmental Therapeutics Program. […] The stock solutions were prepared in dimethyl sulfoxide (DMSO, Sigma-Aldrich, St. Louis, MO, cat. D2650) at 800-fold the tested concentration and stored at -70 degrees C prior to their use. All drugs and investigational agents were tested over a range starting from a high concentration at or near the clinical Cmax and decreasing in half-log increments. If the clinical Cmax for an agent had not been determined, the highest concentration tested was 10 microM.
2.3 Cell Culture. All cells were maintained in an incubator at 37 degrees C and 5% CO2 with 95% humidity. The PDC lines were cultured according to standard operating procedures established by the NCI PDMR. All PDCs were thawed and cultured in Matrigel-coated flasks prepared with a working solution of 1X Ham's F-12 nutrient mix, without supplementation (Invitrogen, cat. 11765054), 100 U/mL penicillin-streptomycin (Invitrogen, cat. 15140122), and 2.5% Matrigel (Corning Inc., cat. 354248) for the first three passages. The 857933-349-R-J2-PDC line was cultured in 6C/Colon 1B media, which includes advanced DMEM/F-12 (Thermo Fisher Scientific, cat. 12634028), 10 mM HEPES (Thermo Fisher Scientific, cat. 15630080), 1X GlutaMAX supplement (Thermo Fisher Scientific, cat. 35050061), 0.1 mg/mL primocin (InvivoGen, cat. ant-pm-2), 10% defined fetal bovine serum, heat inactivated (HyClone Laboratories Inc., cat. SH30070.03HI), 50% L-WRN conditioned media (ATCC, cat. CRL-3276), 1.25 mM N-Acetyl-L-cysteine (Sigma-Aldrich, cat. A9165), 10 mM nicotinamide (Sigma-Aldrich, cat. N0636), 1X B-27 supplement (Thermo Fisher Scientific, cat. 17504044), 1X N-2 supplement (Thermo Fisher Scientific, cat. 17502048), 10 microM Y-27632 dihydrochloride (Tocris Bioscience, cat. 1254), and 50 ng/mL human EGF recombinant protein (Thermo Fisher Scientific, cat. PHG0311). The 485176-168-R4-J1-PDC line was cultured in Panc media, which includes all 6C/Colon 1B media components plus 100 ng/mL human FGF-10 (Thermo Fisher Scientific, cat. 100-26), 500 nM SB-431542 (Selleckchem, cat. S1067), and gastrin (Tocris, cat. 3006).
[…]
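Further: spheroids exposed to compounds for 7 days before readout.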
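Wherever viability, T/C is given: percent of vehicle DMSO control viability with 100% = untreated-like growth.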

IC50 (second compound 0.0316 µM): 360 nM | IC50 (second compound 0.1 µM): 406 nM | IC50 (second compound 0.316 µM): 189 nM | IC50 (second compound 1 µM): 82.3 nM | IC50 (second compound 3.16 µM): < 31.6 nM | IC50 (second compound 10 µM): < 31.6 nM
Compound: O=C(NO)c1cnc(N2CCN(S(=O)(=O)c3ccc4ccccc4c3)CC2)nc1 + Cc1cnc(CNC(=O)c2c(=O)c3ccc(N4CCCN(C)CC4)nc3n3c2sc2ccccc23)cn1
viability, T/C (second compound 0.0316 µM, first compound 0.0316 µM): 98.6% | viability, T/C (second compound 0.0316 µM, first compound 0.1 µM): 78.5% | viability, T/C (second compound 0.0316 µM, first compound 0.316 µM): 57.9% | viability, T/C (second compound 0.0316 µM, first compound 1 µM): 2.29% | viability, T/C (second compound 0.0316 µM, first compound 3.16 µM): 0.07% | viability, T/C (second compound 0.0316 µM, first compound 10 µM): 0.11% | viability, T/C (second compound 0.1 µM, first compound 0.0316 µM): 99.3% | viability, T/C (second compound 0.1 µM, first compound 0.1 µM): 88% | viability, T/C (second compound 0.1 µM, first compound 0.316 µM): 63.5% | viability, T/C (second compound 0.1 µM, first compound 1 µM): 1.62% | viability, T/C (second compound 0.1 µM, first compound 3.16 µM): 0.05% | viability, T/C (second compound 0.1 µM, first compound 10 µM): 0.11% | viability, T/C (second compound 0.316 µM, first compound 0.0316 µM): 84.3% | viability, T/C (second compound 0.316 µM, first compound 0.1 µM): 64.7% | viability, T/C (second compound 0.316 µM, first compound 0.316 µM): 39.2% | viability, T/C (second compound 0.316 µM, first compound 1 µM): 1.28% | viability, T/C (second compound 0.316 µM, first compound 3.16 µM): 0.04% | viability, T/C (second compound 0.316 µM, first compound 10 µM): 0.08% | viability, T/C (second compound 1 µM, first compound 0.0316 µM): 55.3% | viability, T/C (second compound 1 µM, first compound 0.1 µM): 46.6% | viability, T/C (second compound 1 µM, first compound 0.316 µM): 27.1% | viability, T/C (second compound 1 µM, first compound 1 µM): 0.1% | viability, T/C (second compound 1 µM, first compound 3.16 µM): 0.05% | viability, T/C (second compound 1 µM, first compound 10 µM): 0.09% | viability, T/C (second compound 3.16 µM, first compound 0.0316 µM): 41% | viability, T/C (second compound 3.16 µM, first compound 0.1 µM): 53.3% | viability, T/C (second compound 3.16 µM, first compound 0.316 µM): 22.9% | viability, T/C (second compound 3.16 µM, first compound 1 µM): 0.12% | viability, T/C (second compound 3.16 µM, first compound 3.16 µM): 0.1% | viability, T/C (second compound 3.16 µM, first compound 10 µM): 0.15% | viability, T/C (second compound 10 µM, first compound 0.0316 µM): 36.9% | viability, T/C (second compound 10 µM, first compound 0.1 µM): 9.96% | viability, T/C (second compound 10 µM, first compound 0.316 µM): 0.28% | viability, T/C (second compound 10 µM, first compound 1 µM): 0.24% | viability, T/C (second compound 10 µM, first compound 3.16 µM): 0.17% | viability, T/C (second compound 10 µM, first compound 10 µM): 0.2%

From PubChem BioAssay AID2060501 (Molecular Pharmacology Branch, DTP, NCI, 2025)
